Results taken from patent publication EP1102746B1, “SUBSTITUTED PHENYLAMIDINES WITH ANTITHROMBOTIC ACTION” (Boehringer Ingelheim Pharma GmbH & Co.KG, priority 1998, dated 2000).

Assay: Plasma concentration of Verbindung A after oral administration to rhesus monkeys (determined by 3H-BIBU 52 ligand displacement on human platelets against a calibration curve)
Assay type: in vivo, Rhesusaffen
Details: rhesus monkey, oral 1 mg/kg, Rhesusaffe, concentration of Verbindung A measured
Method: Beispielsweise wurde die Konzentration der Verbindung A nach oraler Gabe der Verbindungen der Beispiele 1 (Verbindung B) und 1(1) (Verbindung C) der vorliegenden Erfindung im Plasma bestimmt und mit der Plasmakonzentration der Verbindung A nach oraler Gabe der Verbindung A verglichen.
Nach oraler Gabe von 1 mg/kg der zu untersuchenden Verbindungen am Rhesusaffen wird die Konzentration der Verbindung A im Plasma 4, 8, 12 und 24 Stunden nach Substanzgabe gemessen. Hierzu wird das Rhesusplasma mit einer Suspension von Humanthrombozyten in Plasma und ^3H-BIBU 52 (siehe DE-A-4,214,245) als Ligand inkubiert. Der freie und gebundene Ligand wird durch Zentrifugation getrennt und durch Szintillationszählung quantitativ bestimmt. Aus der Menge des gebundenen Liganden wird anhand einer Eichkurve die Konzentration der Verbindung A errechnet.
Dazu wird aus einer Antikubitalvene Spenderblut entnommen und mit Trinatriumzitrat antikoaguliert (Endkonzentration: 13 mMol/l). Das Blut wird 10 Minuten bei 170 x g zentrifugiert und das überstehende plättchenreiche Plasma (PRP) abgenommen. Das Restblut wird noch einmal bei 3200 x g scharf abzentrifugiert und das überstehende plättchenarme Plasma (PPP) abgenommen.
Für die Eichkurve zur Berechnung der Konzentration wird zu 995 µl PPP 5 µl Lösung der Verbindung A zugesetzt (Endkonzentration 5000 nMol/l). Aus dieser Plasmaprobe werden mit PPP weitere Plasmaproben verdünnt bis zu einer Endkonzentration von 2,5 nMol/l.
Zu 150 µl Plasmaprobe vom Rhesusaffen oder Eichkurvenplasma werden 10 µl ^3H-BIBU 52 (Endkonzentration 10 nMol/l), 10 µl ^14C-Sucrose (370 Bq) und 80 µl PRP gegeben und bei Raumtemperatur 20 Minuten inkubiert. Anschließend werden die Proben 5 Minuten bei 2000 x g zentrifugiert und der Überstand abgezogen. 100 µl des Überstandes werden versetzt mit 100 µl NaOH 0,2 Mol/l, 15 µl HCl 5 Mol/l und 2 ml Szintillator und die ^3H- und ^14C-Radioaktivität quantitativ gemessen. Das Pellet wird in 200 µl NaOH 0,2 Mol/l gelöst. 180 µl davon werden versetzt mit 15 µl HCl 5 Mol/l und 2 ml Szintillator und die ^3H- und ^14C-Radioaktivität gemessen. Das im Pellet noch verbliebene Restplasma wird aus dem ^14C-Gehalt bestimmt und abgezogen. Die Menge des gebundenen Liganden wird aus dem ^3H-Gehalt bestimmt. Die Menge des gebundenen Liganden wird gegen die Konzentration des Eichkurvenplasmas aufgetragen. Die Konzentration der Verbindung A im Rhesusplasma wird aus der Menge des gebundenen Liganden in der betreffenden Plasmaprobe im Vergleich mit der Eichkurve errechnet.
Die nachfolgende Tabelle enthält die gefundenen Werte: […]

Work on `N=C(N)c1ccc(NC(=O)CCC2CCN(CC(=O)O)CC2)cc1` [Verbindung A, 4-[2-[(4-Amidinophenyl)aminocarbonyl]ethyl]-1-carboxymethyl-piperidin] yielded a concentration at 4 h (4 h after dosing, read-out: Konz. von A in [nM], 4h) of 174 nM, a concentration at 8 h (8 h after dosing, read-out: Konz. von A in [nM], 8h) of 38 nM and a concentration at 12 h (12 h after dosing, read-out: Konz. von A in [nM], 12h) of 25 nM. For the same molecule, the concentration at 24 h (24 h after dosing, read-out: Konz. von A in [nM], 24h) was 3 nM.
